# pIC50: −log10 of the molar value. “And” between values parts separate entries of the source, which are not always exact repeats. Equal values may be shown once.
# Test system: primary human hepatocytes
# Assay: Nuclear counts (DAPI) in P. vivax-infected primary hepatocytes as measure of toxicity
# Format: cell-based
# Details: 1 uM, two technical replicates
# Method: Accordingly, we applied dose–response curves of all the tested NMTs on parasite isolates 2 and 3 over concentrations up to 20 µM (Fig. 5c, d, Source Data file). […] Nuclei were counted in each well using DAPI staining as a measure of toxicity (Supplementary Fig. 86, Supplementary Source data). We used the phosphatidylinositol 4-kinase inhibitor (PI4Ki), MMV390048, as a positive control for eliminating schizonts[37],[38].
# Plasmodium vivax liver stage assays were performed as described previously. Cryopreserved primary human hepatocytes (Cat No. F00995-P) and hepatocyte culture medium (HCM) (InVitroGroTM CP Medium) were obtained from Bioreclamation IVT, Inc., (Baltimore, MD, USA). Briefly, we seeded 384-well plates with primary hepatocytes from a single donor lot at a density of 25,000 cells per well. We then infected the hepatocytes with 14,000 freshly hand-dissected sporozoites per well. Cells were exposed to the compounds at indicated concentrations from day 5 post-infection. We used Pi4K inhibitor MMV390048, at 20 µM, as a positive control to eliminate P. vivax liver schizonts. We then proceeded to feed cultures every day, replacing the compounds until day 8 post-infection. Cells were fixed with 4% PFA, permeabilized with 1% Triton X-100, blocked with 2% BSA, and stained with DAPI and PvUIS4 antibodies to detect schizonts and hypnozoites forms by confocal microscopy. […] DAPI was diluted 1:2000. The images were processed, analyzed and outlier cells were removed using IMARIS (Bitplane Inc.) image analysis software.
# Supplementary Fig. 86. […] Nuclear […]
# counts, normalized to DMSO controls, for NMT inhibitors across a dose response. Counts were ob-tained using DAPI staining from the P. vivax-infected wells quantified in Fig. 5d. Error bars represent the standard deviation of two technical replicates.
# (1 picture or pasted object on this page, not shown here)
row,SMILES,Nucleus counts per well
1,c1cncc(CCOc2cccnc2-c2cccc(N3CCNCC3)c2)c1 [Compound 12g],14940 per well and 14730 per well
2,c1cncc(CCOc2ccccc2-c2ccnc(N3CCNCC3)c2)c1 [Compound 12j],16280 per well and 14580 per well
3,Cc1n[nH]c(C)c1CCOc1cc(F)ccc1-c1ccnc(N2CCNCC2)c1 [Compound 12q],14830 per well and 14410 per well
4,Cc1nn(C)c(C)c1CCOc1ccc2ccccc2c1-c1ccnc(N2CCNCC2)c1 [Compound 30a],15050 per well and 16480 per well

# Same assay, conditions: 2.5uM, two technical replicates
row,SMILES,Nucleus counts per well
1,c1cncc(CCOc2cccnc2-c2cccc(N3CCNCC3)c2)c1 [Compound 12g],14740 per well and 14990 per well
2,c1cncc(CCOc2ccccc2-c2ccnc(N3CCNCC3)c2)c1 [Compound 12j],10950 per well and 12190 per well
3,Cc1n[nH]c(C)c1CCOc1cc(F)ccc1-c1ccnc(N2CCNCC2)c1 [Compound 12q],12630 per well and 14350 per well
4,Cc1nn(C)c(C)c1CCOc1ccc2ccccc2c1-c1ccnc(N2CCNCC2)c1 [Compound 30a],16520 per well and 15260 per well

# Same assay, conditions: 5 uM, two technical replicates
row,SMILES,Nucleus counts per well
1,c1cncc(CCOc2cccnc2-c2cccc(N3CCNCC3)c2)c1 [Compound 12g],14960 per well and 13600 per well
2,c1cncc(CCOc2ccccc2-c2ccnc(N3CCNCC3)c2)c1 [Compound 12j],11170 per well and 12350 per well
3,Cc1n[nH]c(C)c1CCOc1cc(F)ccc1-c1ccnc(N2CCNCC2)c1 [Compound 12q],13780 per well and 14410 per well
4,Cc1nn(C)c(C)c1CCOc1ccc2ccccc2c1-c1ccnc(N2CCNCC2)c1 [Compound 30a],14210 per well and 14260 per well

# Same assay, conditions: 10uM, two technical replicates
row,SMILES,Nucleus counts per well
1,c1cncc(CCOc2cccnc2-c2cccc(N3CCNCC3)c2)c1 [Compound 12g],13740 per well and 14770 per well
2,c1cncc(CCOc2ccccc2-c2ccnc(N3CCNCC3)c2)c1 [Compound 12j],12430 per well and 11110 per well
3,Cc1n[nH]c(C)c1CCOc1cc(F)ccc1-c1ccnc(N2CCNCC2)c1 [Compound 12q],15080 per well and 12510 per well
4,Cc1nn(C)c(C)c1CCOc1ccc2ccccc2c1-c1ccnc(N2CCNCC2)c1 [Compound 30a],14230 per well and 14010 per well

# Same assay, conditions: 20uM, two technical replicates, P. vivax-infected wells
row,SMILES,Nucleus counts per well
1,c1cncc(CCOc2cccnc2-c2cccc(N3CCNCC3)c2)c1 [Compound 12g],11770 per well and 13000 per well
2,c1cncc(CCOc2ccccc2-c2ccnc(N3CCNCC3)c2)c1 [Compound 12j],10860 per well and 12840 per well
3,Cc1n[nH]c(C)c1CCOc1cc(F)ccc1-c1ccnc(N2CCNCC2)c1 [Compound 12q],12010 per well and 14890 per well
4,Cc1nn(C)c(C)c1CCOc1ccc2ccccc2c1-c1ccnc(N2CCNCC2)c1 [Compound 30a],13060 per well and 13510 per well

# Test system: not listed separately
# Assay: HepG2 cytotoxicity assay (Live/Dead staining)
# Details: human, HepG2 cells
# Outline: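 Live/dead fluorescence microscopy (calcein-AM and ethidium homodimer, 1 µM each) read at 72 h post-treatment. Compounds dosed at 1 to 20 µM on HepG2 cells, with washing and fresh compound every 24 h.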
row,SMILES,IC50 at 48 h [nM]
1,c1cncc(CCOc2cccnc2-c2cccc(N3CCNCC3)c2)c1 [Compound 12g],> 20000
2,c1cncc(CCOc2ccccc2-c2ccnc(N3CCNCC3)c2)c1 [Compound 12j],> 20000

# Test system: P. falciparum NF54
# Assay: P. falciparum blood stage assay (SYBR Green)
# Format: cell-based, Plasmodium falciparum
# Details: 0.625 uM, 72 h; untreated = 129
# Method: To assess whether any of the PvNMTis developed here could qualify as TCP-1 candidates, we assessed the effect of each compound on blood-stage P. falciparum parasites, as there is currently no well-established in vitro platform for screening P. vivax blood-stage parasites. Synchronized P. falciparum NF54 ring-stage parasites were treated for 72 h with each compound at various concentrations, ranging from 0.625 µM to 10 µM, and parasite DNA replication was measured using a fluorescent DNA binding dye (SYBR Green).
# Sorbitol-synchronized P. falciparum NF54 ring-stage parasites were cultured at a parasitemia of 0.5% and hematocrit of 1.5% in a 96-well microtiter plate. Parasites were treated with each NMT inhibitor compound at 0.625, 1.25, 2.5, 5, or 10 µM for 72 h. Direct lysis of the blood cells to release the parasite DNA was performed by adding 100 μl of LBS buffer containing SYBR green I DNA binding dye to each well. […] ICEstimator regression analysis (http://www.antimalarial-icestimator.net/) was used to obtain relative IC50 values for each compound.
row,SMILES,P. falciparum blood-stage development (parasite DNA level fluorescence)
1,c1cncc(CCOc2cccnc2-c2cccc(N3CCNCC3)c2)c1 [Compound 12g],115
2,c1cncc(CCOc2ccccc2-c2ccnc(N3CCNCC3)c2)c1 [Compound 12j],106.8
3,Cc1n[nH]c(C)c1CCOc1cc(F)ccc1-c1ccnc(N2CCNCC2)c1 [Compound 12q],114.1
4,Cc1nn(C)c(C)c1CCOc1ccc2ccccc2c1-c1ccnc(N2CCNCC2)c1 [Compound 30a],115.4

# Same assay, conditions: 1.25 uM, 72 h; untreated = 129
row,SMILES,P. falciparum blood-stage development (parasite DNA level fluorescence)
1,c1cncc(CCOc2cccnc2-c2cccc(N3CCNCC3)c2)c1 [Compound 12g],117.7
2,c1cncc(CCOc2ccccc2-c2ccnc(N3CCNCC3)c2)c1 [Compound 12j],108.9
3,Cc1n[nH]c(C)c1CCOc1cc(F)ccc1-c1ccnc(N2CCNCC2)c1 [Compound 12q],119.1
4,Cc1nn(C)c(C)c1CCOc1ccc2ccccc2c1-c1ccnc(N2CCNCC2)c1 [Compound 30a],121.5

# Same assay, conditions: 2.5 uM, 72 h; untreated = 129
row,SMILES,P. falciparum blood-stage development (parasite DNA level fluorescence)
1,c1cncc(CCOc2cccnc2-c2cccc(N3CCNCC3)c2)c1 [Compound 12g],114.7
2,c1cncc(CCOc2ccccc2-c2ccnc(N3CCNCC3)c2)c1 [Compound 12j],108.6
3,Cc1n[nH]c(C)c1CCOc1cc(F)ccc1-c1ccnc(N2CCNCC2)c1 [Compound 12q],116.1
4,Cc1nn(C)c(C)c1CCOc1ccc2ccccc2c1-c1ccnc(N2CCNCC2)c1 [Compound 30a],115.2

# Same assay, conditions: 5 uM, 72 h; untreated = 129
row,SMILES,P. falciparum blood-stage development (parasite DNA level fluorescence)
1,c1cncc(CCOc2cccnc2-c2cccc(N3CCNCC3)c2)c1 [Compound 12g],99.89
2,c1cncc(CCOc2ccccc2-c2ccnc(N3CCNCC3)c2)c1 [Compound 12j],101.9
3,Cc1n[nH]c(C)c1CCOc1cc(F)ccc1-c1ccnc(N2CCNCC2)c1 [Compound 12q],98.36
4,Cc1nn(C)c(C)c1CCOc1ccc2ccccc2c1-c1ccnc(N2CCNCC2)c1 [Compound 30a],95.74

# Same assay, conditions: 10 uM, 72 h; untreated = 129
row,SMILES,P. falciparum blood-stage development (parasite DNA level fluorescence)
1,c1cncc(CCOc2cccnc2-c2cccc(N3CCNCC3)c2)c1 [Compound 12g],87.22
2,c1cncc(CCOc2ccccc2-c2ccnc(N3CCNCC3)c2)c1 [Compound 12j],74.22
3,Cc1n[nH]c(C)c1CCOc1cc(F)ccc1-c1ccnc(N2CCNCC2)c1 [Compound 12q],97.95
4,Cc1nn(C)c(C)c1CCOc1ccc2ccccc2c1-c1ccnc(N2CCNCC2)c1 [Compound 30a],95.74

# Same assay, conditions: Plasmodium falciparum, NF54; ring-stage parasites, 72 h, relative IC50
row,SMILES,pIC50
1,c1cncc(CCOc2cccnc2-c2cccc(N3CCNCC3)c2)c1 [Compound 12g],6.22
2,c1cncc(CCOc2ccccc2-c2ccnc(N3CCNCC3)c2)c1 [Compound 12j],5.90

# Same assay, conditions: ring-stage parasites, 72 h, relative IC50
row,SMILES,pIC50
1,Cc1n[nH]c(C)c1CCOc1cc(F)ccc1-c1ccnc(N2CCNCC2)c1 [Compound 12q],6.42
2,Cc1nn(C)c(C)c1CCOc1ccc2ccccc2c1-c1ccnc(N2CCNCC2)c1 [Compound 30a],6.36

# — PMC10480161, “Identification of potent and selective N-myristoyltransferase inhibitors of Plasmodium vivax liver stage hypnozoites and schizonts” (Nature Communications, 2023)
